According to publication PMC12118597 (Science Advances, 2025):
Several values for one entry are separate records, joined by “and”; a condition that tells them apart may be missing. Equal values may be shown once. Entries after “also recorded” stand apart in the source; their conditions may differ. Read-outs that look alike come from different tables or passages of the source.

How the values were obtained:
[1] = target: T1, SARS-CoV-2 NSP3 macrodomain (Mac1) (Severe acute respiratory syndrome coronavirus 2, UniProt P0DTD1); assay: biochemical; assay type: binding
[2] = target: T1, SARS-CoV-2 NSP3 macrodomain (Mac1); assay type: binding; conditions: for 1-BDC (PanDDA run, DMSO background map): event 1; for 2*(1-BDC) (%): occupancy estimate from PanDDA; for Total number of conformations: ligand conformations modeled in the crystal structure
[3] = HTRF binding curve, SARS-CoV-2 Mac1
[4] = SARS CoV-2 macrodomain HTRF assay, dose-response
[5] = PanDDA background density correction, 1-BDC
[6] = crystal soak, 10 mM soak concentration, P43 crystal form
[7] = ligand-bound crystal structure obtained (TRUE)
[8] = site occupied in X-ray crystal structure
[9] = PanDDA background density correction factor
[10] = crystal soak 10 mM, P43 crystal form
[11] = refined crystallographic occupancy
[12] = crystal soak concentration 10 mM
[13] = crystal soak concentration 10 mM, P43 crystals
[14] = SARS CoV-2 macrodomain HTRF assay, single dose concentration 200 μM, read-out: Average % competition
[15] = compound at 200 μM, mean of three to four technical replicates, read-out: % competition at 200 μM (preliminary HTRF screen)
[16] = crystal soak concentration 20 mM
[17] = crystal soak concentration 20 mM, P43 crystals

Structure (SMILES): CC(O)C1CCCN1c1ncnc2[nH]ccc12 (stereo not shown) [AVI-4062]
- Hill slope [1, 3]: 1.1
- Hill slope [1, 4]: 1.1
- 1-BDC [2, 5]: 0.26
- Hit (PanDDA run, DMSO background map) ([2]; crystal soak 10 mM): TRUE
- 1-BDC (PanDDA run, DMSO background map) ([2]; crystal soak 10 mM): 0.26 and 0.29
- Hit (PanDDA run, overall) [2, 6]: TRUE
- Refined ligand occupancy (%) ([2]; crystallographic refinement): 70%
- X-ray crystal structure [2, 7]: TRUE
- 2*(1-BDC) (%) [2]: 52%
- Binding site [2, 8]: Adenosine

Structure (SMILES): CN(C)CC(CO)Nc1ncnc2[nH]ccc12 (stereo not shown) [AVI-3671]
- detectable binding at 200 μM in the HTRF assay ([1]; result in words): neither had detectable binding
- Occupancy difference (refined_occupancy - 2*(1-BDC)) [2]: 0
- 1-BDC [2, 9]: 0.17
- X-ray crystal structure ([2]; TRUE = crystal structure with ligand obtained): TRUE
- PanDDA run, overall: Hit [2, 10]: TRUE
- PanDDA run, overall: Modeled [2, 10]: TRUE
- PanDDA run, DMSO background map: 1-BDC ([2]; crystal soak 10 mM): 0.17
- PanDDA run, DMSO background map: Hit ([2]; crystal soak 10 mM): TRUE
- Total number of conformations [2]: 1
- 2*(1-BDC) (%) [2]: 34%
- Refined ligand occupancy (%) [2, 11]: 34%
- Binding site ([2]; site of ligand in X-ray crystal structure): Adenosine

Structure (SMILES): CC1CCCC(O)(CNc2ncnc3[nH]ccc23)C1 (stereo not shown) [AVI-4307]
- Hill slope [1, 3]: 1.0
- Hill slope [1, 4]: 1.0
- 1-BDC [2, 5]: 0.17
- Hit (PanDDA run, DMSO background map) ([2]; crystal soak 10 mM): TRUE
- 1-BDC (PanDDA run, DMSO background map) ([2]; crystal soak 10 mM): 0.17
- Hit (PanDDA run, overall) [2, 6]: TRUE
- Refined ligand occupancy (%) ([2]; crystallographic refinement): 34%
- X-ray crystal structure [2, 7]: TRUE
- 2*(1-BDC) (%) [2]: 34%
- Binding site [2, 8]: Adenosine

Structure (SMILES): CC(C)(O)C1C2CCC2CN1c1ncnc2[nH]ccc12 (stereo not shown) [AVI-4128]
- Hill slope [1, 3]: 1.2
- Hill slope [1, 4]: 1.2
- 1-BDC [2, 5]: 0.2
- Hit (PanDDA run, DMSO background map) [2, 12]: TRUE
- Modeled (PanDDA run, DMSO background map) [2, 12]: TRUE
- 1-BDC (PanDDA run, DMSO background map) [2, 12]: 0.27 and 0.2
- Hit (PanDDA run, overall) [2, 13]: TRUE
- Modeled (PanDDA run, overall) [2, 13]: TRUE
- Modeling comment (PanDDA run, overall) [2, 13]: Duplicate, not modeled; also recorded: Weak density for open conformation
- Refined ligand occupancy (%) ([2]; crystallographic refinement): 60%
- X-ray crystal structure [2, 7]: TRUE
- 2*(1-BDC) (%) [2]: 40%
- Binding site [2, 8]: Adenosine

Structure (SMILES): C[C@@H]1CCN(c2ncnc3[nH]ccc23)[C@H](CO)C1 [AVI-4064]
- Hill slope [1, 3]: 1.2
- Hill slope [1, 4]: 1.2
- 1-BDC [2, 5]: 0.19
- Hit (PanDDA run, DMSO background map) ([2]; crystal soak 10 mM): TRUE
- 1-BDC (PanDDA run, DMSO background map) ([2]; crystal soak 10 mM): 0.19
- Hit (PanDDA run, overall) [2, 6]: TRUE
- Refined ligand occupancy (%) ([2]; crystallographic refinement): 38%
- X-ray crystal structure [2, 7]: TRUE
- 2*(1-BDC) (%) [2]: 38%
- Binding site [2, 8]: Adenosine

Structure (SMILES): O[C@H]1CC[C@H]2CCN(c3ncnc4[nH]ccc34)[C@H]21 [AVI-5997]
- Hill slope [1, 3]: 1.2
- Hill slope [1, 4]: 1.2
- 1-BDC [2, 5]: 0.29
- Refined ligand occupancy (%) ([2]; crystallographic refinement): 70%
- X-ray crystal structure [2, 7]: TRUE
- 2*(1-BDC) (%) [2]: 58%
- Binding site [2, 8]: Adenosine

Structure (SMILES): O=C(O)C(F)(F)F.OC1([C@H]2CCCN2c2ncnc3[nH]ccc23)Cc2ccccc2C1 [AVI-3731]
- Hill slope [1, 3]: 1.1
- Hill slope [1, 4]: 1.1
- inhibition at 200 µM [1, 14]: 100%
- inhibition at 200 µM [1, 15]: 100%
- Occupancy difference (refined_occupancy - 2*(1-BDC)) [2]: 0
- 1-BDC [2, 9]: 0.2
- PanDDA run, overall: Hit [2, 10]: TRUE
- PanDDA run, DMSO background map: 1-BDC ([2]; crystal soak 10 mM): 0.2
- PanDDA run, DMSO background map: Hit ([2]; crystal soak 10 mM): TRUE
- Total number of conformations [2]: 1
- X-ray crystal structure [2, 7]: TRUE
- 2*(1-BDC) (%) [2]: 40%
- Refined ligand occupancy (%) [2, 11]: 40%
- Binding site [2, 8]: Adenosine

Structure (SMILES): OCC1CC2(CCCC2)CN1c1ncnc2[nH]ccc12 (stereo not shown) [AVI-3708]
- Hill slope [1, 3]: 1.1
- Hill slope [1, 4]: 1.1
- inhibition at 200 µM [1, 14]: 90%
- inhibition at 200 µM [1, 15]: 90%
- Occupancy difference (refined_occupancy - 2*(1-BDC)) [2]: 0
- 1-BDC [2, 9]: 0.32
- PanDDA run, overall: Hit [2, 10]: TRUE
- PanDDA run, DMSO background map: 1-BDC ([2]; crystal soak 10 mM): 0.32
- PanDDA run, DMSO background map: Hit ([2]; crystal soak 10 mM): TRUE
- Total number of conformations [2]: 1
- X-ray crystal structure [2, 7]: TRUE
- 2*(1-BDC) (%) [2]: 64%
- Refined ligand occupancy (%) [2, 11]: 64%
- Binding site [2, 8]: Adenosine

Structure (SMILES): OC1(CNc2ncnc3[nH]ccc23)CCCC(C(F)(F)F)C1 (stereo not shown) [AVI-4309]
- Hill slope [1, 3]: 1.4
- Hill slope [1, 4]: 1.4
- 1-BDC [2, 5]: 0.2
- Hit (PanDDA run, DMSO background map) ([2]; crystal soak 10 mM): TRUE
- 1-BDC (PanDDA run, DMSO background map) ([2]; crystal soak 10 mM): 0.21
- Hit (PanDDA run, overall) [2, 6]: TRUE
- Refined ligand occupancy (%) ([2]; crystallographic refinement): 40%
- X-ray crystal structure [2, 7]: TRUE
- 2*(1-BDC) (%) [2]: 40%
- Binding site [2, 8]: Adenosine

Structure (SMILES): OC1(CNc2ncnc3[nH]ccc23)CCCCC1 [AVI-6217]
- Hill slope [1, 3]: 1.1
- Hill slope [1, 4]: 1.1
- 1-BDC [2, 5]: 0.22
- Refined ligand occupancy (%) ([2]; crystallographic refinement): 60%
- X-ray crystal structure [2, 7]: TRUE
- 2*(1-BDC) (%) [2]: 44%
- Binding site [2, 8]: Adenosine

Structure (SMILES): OC1(CNc2ncnc3[nH]ccc23)CC2CCC1CC2 (stereo not shown) [AVI-4320]
- Hill slope [1, 3]: 1.1
- Hill slope [1, 4]: 1.1
- 1-BDC [2, 5]: 0.14
- Refined ligand occupancy (%) ([2]; crystallographic refinement): 28%
- X-ray crystal structure [2, 7]: TRUE
- 2*(1-BDC) (%) [2]: 28%
- Binding site [2, 8]: Adenosine

Structure (SMILES): OCC1C=CCCN1c1ncnc2[nH]ccc12 (stereo not shown) [AVI-5998]
- Hill slope [1, 3]: 1.2
- Hill slope [1, 4]: 1.2
- 1-BDC [2, 5]: 0.19
- Refined ligand occupancy (%) ([2]; crystallographic refinement): 38%
- X-ray crystal structure [2, 7]: TRUE
- 2*(1-BDC) (%) [2]: 38%
- Binding site [2, 8]: Adenosine

Structure (SMILES): O=C1CCc2cc(C(=O)N3CC(C(=O)O)CCC34CCCC4)c(F)cc2N1 (stereo not shown) [AVI-338]
- Hill slope [1, 3]: 1.5
- Hill slope ([1]; dose-response): 1.5
- 1-BDC [2, 5]: 0.07
- X-ray crystal structure ([2]; TRUE = ligand-bound crystal structure obtained (PDB code given)): TRUE
- Hit (PanDDA run, DMSO background map) [2, 16]: TRUE
- Modeled (PanDDA run, DMSO background map) [2, 16]: TRUE
- 1-BDC (PanDDA run, DMSO background map) [2, 16]: 0.07
- Hit (PanDDA run, overall) [2, 17]: TRUE
- Modeled (PanDDA run, overall) [2, 17]: TRUE
- Refined ligand occupancy (%) ([2]; crystallographic refinement): 14%
- 2*(1-BDC) (%) [2]: 14%
- Binding site ([2]; site of Mac1 occupied in the X-ray crystal structure (Adenosine or Distal)): Adenosine

Structure (SMILES): Cc1c[nH]c2ncnc(NCC3(O)CCOCC3)c12 [AVI-4194, 4-(((5-methyl-7H-pyrrolo[2,3-d]pyrimidin-4-yl)amino)methyl)tetrahydro-2H-pyran-4-ol]
- Hill slope [1, 3]: 1.3
- Hill slope [1, 4]: 1.3
- 1-BDC [2, 5]: 0.09
- Hit (PanDDA run, DMSO background map) [2, 12]: TRUE
- Modeled (PanDDA run, DMSO background map) [2, 12]: TRUE
- 1-BDC (PanDDA run, DMSO background map) [2, 12]: 0.13 and 0.09
- Hit (PanDDA run, overall) [2, 13]: TRUE
- Modeled (PanDDA run, overall) [2, 13]: TRUE
- Modeling comment (PanDDA run, overall) [2, 13]: Duplicate, not modeled
- Refined ligand occupancy (%) ([2]; crystallographic refinement): 18%
- X-ray crystal structure [2, 7]: TRUE
- 2*(1-BDC) (%) [2]: 18%
- Binding site [2, 8]: Adenosine

Structure (SMILES): OC1(CNc2ncnc3[nH]ccc23)CCSCC1 [AVI-4319]
- Hill slope [1, 3]: 1.2
- Hill slope [1, 4]: 1.2
- 1-BDC [2, 5]: 0.16
- Refined ligand occupancy (%) ([2]; crystallographic refinement): 32%
- X-ray crystal structure [2, 7]: TRUE
- 2*(1-BDC) (%) [2]: 32%
- Binding site [2, 8]: Adenosine

Structure (SMILES): OC1CCC(O)(CNc2ncnc3[nH]ccc23)CC1 (stereo not shown) [AVI-6220]
- Hill slope [1, 3]: 1.3
- Hill slope [1, 4]: 1.3
- 1-BDC [2, 5]: 0.07
- Refined ligand occupancy (%) ([2]; crystallographic refinement): 14%
- X-ray crystal structure [2, 7]: TRUE
- 2*(1-BDC) (%) [2]: 14%
- Binding site [2, 8]: Adenosine
